Results reported in patent US20240180900A1, “COMPOUNDS AND METHODS FOR THE TARGETED DEGRADATION OF ANDROGEN RECEPTOR” (Arvinas Operations, Inc., priority 2022, published 2024).

How the values were obtained:
AR = biological target: T1, AR (Homo sapiens, UniProt P10275); assay: poly-ubiquitination assay; format: cell-based; details: with Compound A treatment
T1 sequence (P10275 1-920): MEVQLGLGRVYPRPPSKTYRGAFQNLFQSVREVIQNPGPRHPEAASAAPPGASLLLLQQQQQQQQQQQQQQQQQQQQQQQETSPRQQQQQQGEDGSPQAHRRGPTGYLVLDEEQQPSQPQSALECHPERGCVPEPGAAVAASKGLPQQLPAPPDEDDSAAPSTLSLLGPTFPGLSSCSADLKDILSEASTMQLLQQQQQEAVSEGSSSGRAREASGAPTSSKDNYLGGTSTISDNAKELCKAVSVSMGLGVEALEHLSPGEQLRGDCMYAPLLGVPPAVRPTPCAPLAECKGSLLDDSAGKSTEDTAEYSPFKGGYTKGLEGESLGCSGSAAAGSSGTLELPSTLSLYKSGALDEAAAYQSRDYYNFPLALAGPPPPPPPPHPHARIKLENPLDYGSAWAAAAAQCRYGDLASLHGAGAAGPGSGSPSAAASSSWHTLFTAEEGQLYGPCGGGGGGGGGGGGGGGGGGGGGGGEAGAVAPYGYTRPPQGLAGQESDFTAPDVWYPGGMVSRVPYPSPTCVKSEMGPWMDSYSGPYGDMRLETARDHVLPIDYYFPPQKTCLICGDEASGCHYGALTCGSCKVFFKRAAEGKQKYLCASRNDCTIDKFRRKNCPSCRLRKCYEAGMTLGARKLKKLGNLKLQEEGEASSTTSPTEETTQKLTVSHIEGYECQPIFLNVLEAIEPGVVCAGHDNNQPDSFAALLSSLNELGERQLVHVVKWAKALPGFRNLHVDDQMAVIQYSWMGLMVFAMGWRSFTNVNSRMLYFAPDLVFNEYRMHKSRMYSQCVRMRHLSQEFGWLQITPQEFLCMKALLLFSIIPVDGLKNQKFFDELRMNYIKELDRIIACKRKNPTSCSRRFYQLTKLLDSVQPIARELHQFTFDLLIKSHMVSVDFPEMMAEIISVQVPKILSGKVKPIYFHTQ

[1] = biological target: T2, AR (VCaP cells, AR amplification) (Homo sapiens, UniProt P10275); assay: AR degradation assay and time course in VCaP cells; format: cell-based
T2 construct: endogenous in cells; host or cells: VCaP
T2 sequence (P10275 1-920): T1 sequence (P10275 1-920)
Protocol: FIG. 2 is an analysis of Compound A in in vitro AR degradation assays conducted in VCaP cells and LNCaP cancer cells that harbor AR amplification and the AR mutation (T878A) mutation, respectively.
To determine the pharmacological effect of Compound A in vitro, AR degradation assays were conducted in VCaP (vertebral-cancer of the prostate) cancer cells and LNCaP (lymph node carcinoma of the prostate) cancer cells that harbor AR amplification and the AR mutation (T878A) mutation, respectively.
To determine the pharmacological effect of Compound A in vitro, AR degradation assays were conducted in VCaP cells and LNCaP prostate cancer cells that harbor AR amplification and the AR mutation (T878A) mutation, respectively.

[2] = Compound A in clinical setting: treatment-related adverse events; format: in vivo, human; details: TRAEs, n = 84
VCaP tumor xenograft = VCaP tumor xenograft study in intact (non-castrated) mice; format: in vivo, mouse
From the text: To mimic higher androgen levels found in an incomplete testosterone suppression environment, intact (non-castrated) mice were employed for a VCaP tumor xenograft study.

AR H875Y/T878A = biological target: T3, AR H875Y/T878A (Homo sapiens, UniProt P10275, H875Y/T878A); assay: AR degradation in T-Rex-293 cell line, H875Y/T878A; format: cell-based; details: T-Rex-293, ELISA
T3 construct: expressed in transfected cells; host or cells: T-REx-293
From the text: (§1) FIG. 3 is a graph showing Compound A's ability to degrade clinically relevant mutated forms AR.
(§2) To assess the ability of Compound A to degrade variants of the AR, vectors expressing wild-type AR or mutant AR proteins harboring clinically observed mutations in the ligand binding domain (13 with single amino acid changes or 4 with 2 amino acid changes) (Azad A. A., Volik S. V., Wyatt A. W., et al. Androgen receptor gene aberrations in circulating cell-free DNA: biomarkers of therapeutic resistance in castration-resistant prostate cancer. Clin Cancer Res. 2015; 21:2315-2324; Robinson D., Van Allen E. M., Wu Y. M., et al. Integrative clinical genomics of advanced prostate cancer. Cell. 2015; 161:1215-1228; Ledet E. M., Lilly M. B., Sonpavde G., et al. Comprehensive analysis of AR alterations in circulating tumor DNA from patients with advanced prostate cancer. Oncologist.

AR F877L/T878A = biological target: T4, AR F877L/T878A (Homo sapiens, UniProt P10275, F877L/T878A); assay: AR degradation in T-Rex-293 cell line, F877L/T878A; format: cell-based; details: T-Rex-293, ELISA
T4 construct: expressed in transfected cells; host or cells: T-REx-293
From the text: as §1, §2

PSA = assay: plasma PSA levels by ELISA, intact VCaP tumor model; format: in vivo, mouse
From the text: Plasma PSA levels are used as a clinical biomarker of disease progression and are thought to be closely related with the degree of AR activity (Catalona, W. J., Richie, J. P., Ahmann, F. R., et al. Comparison of digital rectal examination and serum prostate specific antigen in the early detection of prostate cancer: results of a multicenter clinical trial of 6,630 men. The Journal of Urology. 1994; 151(5):1283-1290. Cleutjens, K. B., van Eekelen, C. C., van der Korput, H. A., et al. Two androgen response regions cooperate in steroid hormone regulated activity of the prostate-specific antigen promoter. J Biol Chem. 1996; 271(11):6379-6388.). Plasma PSA levels upon Compound A treatment were evaluated by ELISA in samples from the intact VCaP tumor model.

T4 sequence (P10275 whole entry F877L/T878A): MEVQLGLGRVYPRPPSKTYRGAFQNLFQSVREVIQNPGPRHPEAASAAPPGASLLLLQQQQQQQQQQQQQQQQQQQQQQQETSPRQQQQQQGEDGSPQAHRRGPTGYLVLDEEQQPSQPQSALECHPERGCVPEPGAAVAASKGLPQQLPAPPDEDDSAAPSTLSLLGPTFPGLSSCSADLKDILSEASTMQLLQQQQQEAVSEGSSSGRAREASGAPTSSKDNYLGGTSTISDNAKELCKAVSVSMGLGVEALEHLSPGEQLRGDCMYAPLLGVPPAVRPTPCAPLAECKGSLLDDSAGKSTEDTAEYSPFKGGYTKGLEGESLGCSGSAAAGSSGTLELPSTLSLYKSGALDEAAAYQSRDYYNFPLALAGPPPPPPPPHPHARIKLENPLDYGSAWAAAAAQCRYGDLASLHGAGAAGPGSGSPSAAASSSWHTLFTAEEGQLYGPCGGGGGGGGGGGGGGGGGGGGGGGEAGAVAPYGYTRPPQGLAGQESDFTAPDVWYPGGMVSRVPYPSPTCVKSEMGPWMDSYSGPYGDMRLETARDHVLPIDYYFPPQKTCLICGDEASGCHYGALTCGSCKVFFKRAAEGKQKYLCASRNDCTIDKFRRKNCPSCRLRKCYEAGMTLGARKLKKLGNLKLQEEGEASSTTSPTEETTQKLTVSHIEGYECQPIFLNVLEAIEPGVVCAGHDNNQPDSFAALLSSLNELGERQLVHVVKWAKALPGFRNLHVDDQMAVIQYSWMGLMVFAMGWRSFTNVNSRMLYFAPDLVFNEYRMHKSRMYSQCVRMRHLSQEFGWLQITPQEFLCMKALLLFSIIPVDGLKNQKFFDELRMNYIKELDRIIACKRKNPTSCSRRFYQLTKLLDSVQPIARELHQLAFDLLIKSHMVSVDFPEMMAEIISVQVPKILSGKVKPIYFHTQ
T3 sequence (P10275 whole entry H875Y/T878A): as the sequence (P10275 whole entry F877L/T878A) above, with H875Y, L877F counted along it

COc1cc(O[C@H]2C(C)(C)[C@H](NC(=O)c3ccc(N4CCC(CN5CCN(c6ccc(C(=O)N[C@H]7CCC(=O)NC7=O)c(F)c6)CC5)CC4)cc3)C2(C)C)ccc1C#N [Compound A, 4-(4-((1-(4-(((1R,3R)-3-(4-cyano-3-methoxyphenoxy)-2,2,4,4-tetramethylcyclobutyl)carbamoyl)phenyl)piperidin-4-yl)methyl)piperazin-1-yl)-N—((S)-2,6-dioxopiperidin-3-yl)-2-fluorobenzamide]
ubiquitination of the AR (AR): significantly increased
DC50 ([1]; 24 hours of treatment): < 1 nM
Dmax ([1]; 24 hours of treatment): ≥ 94%
elimination of AR from the cell (time course) ([1]; by 6 hours): near complete elimination of AR
degradation of AR (time course) ([1]; within 2 hours of treatment): > 50%
Alopecia: Any Grade [2]: 8 n
Alopecia: Grade 3+ [2]: 0 (0) n (%)
Anemia: Any Grade [2]: 3 n
Anemia: Grade 3+ [2]: 0 (0) n (%)
Any TRAE: Any Grade [2]: 55 n
Any TRAE: Grade 3+ [2]: 7 (8) n (%)
Aspartate Aminotransferase increase: Any Grade [2]: 6 n
Aspartate Aminotransferase increase: Grade 3+ [2]: 1 (1) n (%)
Decreased appetite: Any Grade [2]: 9 n
Decreased appetite: Grade 3+ [2]: 0 (0) n (%)
Diarrhea: Any Grade [2]: 9 n
Diarrhea: Grade 3+ [2]: 1 (1) n (%)
Fatigue: Any Grade [2]: 24 n
Fatigue: Grade 3+ [2]: 2 (2) n (%)
Nausea: Any Grade [2]: 12 n
Nausea: Grade 3+ [2]: 0 (0) n (%)
Vomiting: Any Grade [2]: 9 n
Vomiting: Grade 3+ [2]: 0 (0) n (%)
Weight decrease: Any Grade [2]: 1 n
Weight decrease: Grade 3+ [2]: 0 (0) n (%)
tumor growth inhibition (TGI) (VCaP tumor xenograft; 1 mg/kg/day orally QD for 21 days): 34%
tumor growth inhibition (TGI) (VCaP tumor xenograft; 3 mg/kg/day orally QD for 21 days): 74%
tumor growth inhibition (TGI) (VCaP tumor xenograft; 10 mg/kg/day orally QD for 21 days): 98%
DC50 (AR H875Y/T878A): 7.7 nM
DC50 (AR F877L/T878A): 7 nM
plasma PSA levels vs enzalutamide (PSA; 3 mg/kg and 10 mg/kg vs 20 mg/kg enzalutamide): reduced PSA levels more robustly than 20 mg/kg of enzalutamide
plasma PSA levels (PSA; all 3 doses (10, 3, 1 mg/kg/day), tumor-bearing intact mice): reduced PSA levels in a dose-dependent manner
